Molecular target: hCRTH2 receptor (Homo sapiens (Human), UniProt Q9Y5Y4)
Assay: hCRTH2 receptor membranes radioligand (3H-PGD2) displacement assay
Type: binding
Conditions: 3H-PGD2 radioligand displacement, HEK293-hCRTH2 membranes
Method in brief: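 HEK293-hCRTH2 membranes, 20 μg/well; 3H-PGD2 added at 2.5 nM; binding buffer 50 mM Tris, 10 mM MnCl2, 1 mM EDTA, pH 7.0; 90 min RT; GF/C filtration, scintillation count. Nonspecific binding: PGD2 at […].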

hCRTH2 receptor, sequence (Q9Y5Y4 whole entry): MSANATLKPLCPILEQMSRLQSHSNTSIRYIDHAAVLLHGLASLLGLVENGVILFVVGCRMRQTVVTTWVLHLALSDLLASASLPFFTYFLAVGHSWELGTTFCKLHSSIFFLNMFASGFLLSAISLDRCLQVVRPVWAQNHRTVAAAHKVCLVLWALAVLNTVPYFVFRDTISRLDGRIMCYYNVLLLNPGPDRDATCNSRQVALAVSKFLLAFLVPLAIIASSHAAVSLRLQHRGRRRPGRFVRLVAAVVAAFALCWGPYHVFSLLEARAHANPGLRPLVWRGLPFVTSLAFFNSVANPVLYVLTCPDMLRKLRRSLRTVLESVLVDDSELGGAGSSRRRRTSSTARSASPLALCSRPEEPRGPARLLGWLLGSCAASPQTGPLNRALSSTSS

| SMILES | IC50 |
| --- | --- |
| CCOc1ccc(CC(=O)O)cc1-c1ccc(F)c2c1CN(C(=O)OCCC(C)(C)OC)CC2 [Example 383, 8-(5-Carboxymethyl-2-ethoxy-phenyl)-5-fluoro-3,4-dihydro-1H-isoquinoline-2-carboxylic acid 3-methoxy-3-methyl-butyl ester] | 19 nM |
| CCOc1cc(CC(=O)O)ccc1-c1ccc(F)c2c1CN(C(=O)O[C@H](C)c1ccccc1)CC2 [Example 385, 8-(4-Carboxymethyl-2-ethoxy-phenyl)-5-fluoro-3,4-dihydro-1H-isoquinoline-2-carboxylic acid (R)-1-phenyl-ethyl ester] | 35.8 nM |
| CCOc1cc(CC(=O)O)ccc1-c1ccc(F)c2c1CN(C(=O)OCc1cnccn1)CC2 [Example 386, 8-(4-Carboxymethyl-2-ethoxy-phenyl)-5-fluoro-3,4-dihydro-1H-isoquinoline-2-carboxylic acid pyrazin-2-ylmethyl ester] | 3.4 nM |
| CCOc1cc(CC(=O)O)ccc1-c1ccc(F)c2c1CN(C(=O)OCc1ncc(C)cc1F)CC2 [Example 387, 8-(4-Carboxymethyl-2-ethoxy-phenyl)-5-fluoro-3,4-dihydro-1H-isoquinoline-2-carboxylic acid 3-fluoro-5-methyl-pyridin-2-ylmethyl ester] | 8 nM |
| CCOc1cc(CC(=O)O)ccc1-c1ccc(F)c2c1CN(C(=O)OCc1ccnn1C)CC2 [Example 388, 8-(4-Carboxymethyl-2-ethoxy-phenyl)-5-fluoro-3,4-dihydro-1H-isoquinoline-2-carboxylic acid 2-methyl-2H-pyrazol-3-ylmethyl ester] | 3.8 nM |
| CCOc1cc(CC(=O)O)ccc1-c1ccc(F)c2c1CN(C(=O)OCc1cccc(C)n1)CC2 [Example 390, 8-(4-Carboxymethyl-2-ethoxy-phenyl)-5-fluoro-3,4-dihydro-1H-isoquinoline-2-carboxylic acid 6-methyl-pyridin-2-ylmethyl ester] | 0.8 nM |
| CCOc1cc(CC(=O)O)ccc1-c1ccc(F)c2c1CN(C(=O)OCC1CC1)CC2 [Example 391, 8-(4-Carboxymethyl-2-ethoxy-phenyl)-5-fluoro-3,4-dihydro-1H-isoquinoline-2-carboxylic acid cyclopropylmethyl ester] | 1.6 nM |
| CCOc1cc(CC(=O)O)ccc1-c1ccc(F)c2c1CN(C(=O)OCC1CCCC1)CC2 [Example 392, 8-(4-Carboxymethyl-2-ethoxy-phenyl)-5-fluoro-3,4-dihydro-1H-isoquinoline-2-carboxylic acid cyclopentylmethyl ester] | 5.9 nM |
| CCOc1cc(CC(=O)O)ccc1-c1ccc(F)c2c1CN(C(=O)OCCC(C)C)CC2 [Example 393, 8-(4-Carboxymethyl-2-ethoxy-phenyl)-5-fluoro-3,4-dihydro-1H-isoquinoline-2-carboxylic acid 3-methyl-butyl ester] | 49.4 nM |
| CCOc1cc(CC(=O)O)ccc1-c1ccc(F)c2c1CN(C(=O)OCc1ccccn1)CC2 [Example 395, 8-(4-Carboxymethyl-2-ethoxy-phenyl)-5-fluoro-3,4-dihydro-1H-isoquinoline-2-carboxylic acid pyridin-2-ylmethyl ester] | 3.7 nM |
| O=C(O)Cc1ccc(Cl)cc1-c1ccc(F)c2c1CN(C(=O)OCc1ccccc1)CC2 [Example 416, 8-(2-Carboxymethyl-5-chloro-phenyl)-5-fluoro-3,4-dihydro-1H-isoquinoline-2-carboxylic acid benzyl ester] | 575 nM |
| COc1cccc(OCC(=O)O)c1-c1ccc(F)c2c1CN(C(=O)OCc1ccccc1)CC2 [Example 417, 8-(2-Carboxymethoxy-6-methoxy-phenyl)-5-fluoro-3,4-dihydro-1H-isoquinoline-2-carboxylic acid benzyl ester] | 23.5 nM |
| COc1cccc(CC(=O)O)c1-c1ccc(F)c2c1CN(C(=O)OCc1ccccc1)CC2 [Example 418, 8-(2-Carboxymethyl-6-methoxy-phenyl)-5-fluoro-3,4-dihydro-1H-isoquinoline-2-carboxylic acid benzyl ester] | 352 nM |
| COc1c(CC(=O)O)cccc1-c1ccc(F)c2c1CN(C(=O)OCc1ccccc1)CC2 [Example 423, 8-(3-Carboxymethyl-2-methoxy-phenyl)-5-fluoro-3,4-dihydro-1H-isoquinoline-2-carboxylic acid benzyl ester] | 180 nM |
| COc1cc(OCC(=O)O)ccc1-c1ccc(F)c2c1CN(C(=O)OCc1ccccc1)CC2 [Example 424, 8-(4-Carboxymethoxy-2-methoxy-phenyl)-5-fluoro-3,4-dihydro-1H-isoquinoline-2-carboxylic acid benzyl ester] | 444 nM |
| O=C(O)Cc1ccc(OCC(F)(F)F)c(-c2ccc(F)c3c2CN(C(=O)[C@@H]2C[C@H]2c2ccccc2)CC3)c1 [Example 426, [3-[5-Fluoro-2-((1R,2R)-2-phenyl-cyclopropanecarbonyl)-1,2,3,4-tetrahydro-isoquinolin-8-yl]-4-(2,2,2-trifluoro-ethoxy)-phenyl]-acetic acid] | 1.9 nM |

| SMILES | IC50 |
| --- | --- |
| O=C(O)Cc1ccc(OCCF)c(-c2ccc(F)c3c2CN(C(=O)[C@@H]2C[C@H]2c2ccccc2)CC3)c1 [Example 427, {4-(2-Fluoro-ethoxy)-3-[5-fluoro-2-((1R,2R)-2-phenyl-cyclopropanecarbonyl)-1,2,3,4-tetrahydro-isoquinolin-8-yl]-phenyl}-acetic acid] | 3.1 nM |
| CC(C)(C)Oc1ccc(CC(=O)O)cc1-c1ccc(F)c2c1CN(C(=O)[C@@H]1C[C@H]1c1ccccc1)CC2 [Example 428, {4-tert-Butoxy-3-[5-fluoro-2-((1R,2R)-2-phenyl-cyclopropanecarbonyl)-1,2,3,4-tetrahydro-isoquinolin-8-yl]-phenyl}-acetic acid] | 3.7 nM |
| COc1ccc(C2(C(=O)O)CC2)cc1-c1ccc(F)c2c1CN(C(=O)[C@@H]1C[C@H]1c1ccccc1)CC2 [Example 429, 1-{3-[5-Fluoro-2-((1R,2R)-2-phenyl-cyclopropanecarbonyl)-1,2,3,4-tetrahydro-isoquinolin-8-yl]-4-methoxy-phenyl}-cyclopropanecarboxylic acid] | 50.7 nM |
| O=C(O)Cc1ccc(OC2CC2)c(-c2ccc(F)c3c2CN(C(=O)OCc2ccccc2)CC3)c1 [Example 430, 8-(5-Carboxymethyl-2-cyclopropoxy-phenyl)-5-fluoro-3,4-dihydro-1H-isoquinoline-2-carboxylic acid benzyl ester] | 14.9 nM |
| CCOc1ccc(CC(=O)O)cc1-c1ccc(F)c2c1CN(C(=O)NCc1ccccc1F)CC2 [Example 432, {4-Ethoxy-3-[5-fluoro-2-(2-fluoro-benzylcarbamoyl)-1,2,3,4-tetrahydro-isoquinolin-8-yl]-phenyl}-acetic acid] | 5.3 nM |
| CCOc1ccc(CC(=O)O)cc1-c1ccc(F)c2c1CN(C(=O)NCc1cccc(F)c1)CC2 [Example 433, {4-Ethoxy-3-[5-fluoro-2-(3-fluoro-benzylcarbamoyl)-1,2,3,4-tetrahydro-isoquinolin-8-yl]-phenyl}-acetic acid] | 59.3 nM |
| CCOc1ccc(CC(=O)O)cc1-c1ccc(F)c2c1CN(C(=O)NCc1ccc(F)cc1)CC2 [Example 434, {4-Ethoxy-3-[5-fluoro-2-(4-fluoro-benzylcarbamoyl)-1,2,3,4-tetrahydro-isoquinolin-8-yl]-phenyl}-acetic acid] | 0.7 nM |
| CCOc1ccc(CC(=O)O)cc1-c1ccc(F)c2c1CN(C(=O)NCCc1ccccc1)CC2 [Example 435, [4-Ethoxy-3-(5-fluoro-2-phenethylcarbamoyl-1,2,3,4-tetrahydro-isoquinolin-8-yl)-phenyl]-acetic acid] | 2.6 nM |
| CCOc1ccc(CC(=O)O)cc1-c1ccc(F)c2c1CN(C(=O)NCc1ccccc1Cl)CC2 [Example 436, {3-[2-(2-Chloro-benzylcarbamoyl)-5-fluoro-1,2,3,4-tetrahydro-isoquinolin-8-yl]-4-ethoxy-phenyl}-acetic acid] | 5.4 nM |
| CCOc1ccc(CC(=O)O)cc1-c1ccc(F)c2c1CN(C(=O)NCc1ccccc1OC)CC2 [Example 437, {4-Ethoxy-3-[5-fluoro-2-(2-methoxy-benzylcarbamoyl)-1,2,3,4-tetrahydro-isoquinolin-8-yl]-phenyl}-acetic acid] | 10.9 nM |
| CCCNC(=O)N1CCc2c(F)ccc(-c3cc(CC(=O)O)ccc3OCC)c2C1 [Example 439, [4-Ethoxy-3-(5-fluoro-2-propylcarbamoyl-1,2,3,4-tetrahydro-isoquinolin-8-yl)-phenyl]-acetic acid] | 126 nM |
| CCOc1cc(CC(=O)O)ccc1-c1ccc(F)c2c1CN(C(=O)NCc1ccccc1F)CC2 [Example 440, {3-Ethoxy-4-[5-fluoro-2-(2-fluoro-benzylcarbamoyl)-1,2,3,4-tetrahydro-isoquinolin-8-yl]-phenyl}-acetic acid] | 3.8 nM |
| CCOc1cc(CC(=O)O)ccc1-c1ccc(F)c2c1CN(C(=O)NCc1cccc(F)c1)CC2 [Example 441, {3-Ethoxy-4-[5-fluoro-2-(3-fluoro-benzylcarbamoyl)-1,2,3,4-tetrahydro-isoquinolin-8-yl]-phenyl}-acetic acid] | 17.5 nM |
| CCOc1cc(CC(=O)O)ccc1-c1ccc(F)c2c1CN(C(=O)NCc1ccc(F)cc1)CC2 [Example 442, {3-Ethoxy-4-[5-fluoro-2-(4-fluoro-benzylcarbamoyl)-1,2,3,4-tetrahydro-isoquinolin-8-yl]-phenyl}-acetic acid] | 5.3 nM |
| CCOc1cc(CC(=O)O)ccc1-c1ccc(F)c2c1CN(C(=O)NCCc1ccccc1)CC2 [Example 443, [3-Ethoxy-4-(5-fluoro-2-phenethylcarbamoyl-1,2,3,4-tetrahydro-isoquinolin-8-yl)-phenyl]-acetic acid] | 18.1 nM |
| CCOc1cc(CC(=O)O)ccc1-c1ccc(F)c2c1CN(C(=O)NCc1ccccc1Cl)CC2 [Example 444, {4-[2-(2-Chloro-benzylcarbamoyl)-5-fluoro-1,2,3,4-tetrahydro-isoquinolin-8-yl]-3-ethoxy-phenyl}-acetic acid] | 2 nM |

Source: US9255090B2, “Heterocyclyl derivatives and their use as prostaglandin D2 receptor modulators” (Actelion Pharmaceuticals Ltd., priority 2012, dated 2016)
